# Laboratory results from ChEMBL document CHEMBL5500349, “Discovery of ganoderic acid A (GAA) PROTACs as MDM2 protein degraders for the treatment of breast cancer” (Eur J Med Chem, 2024).
# Activity calls are given as the source filed them. No cut-off for these calls is given here.
# Experiments:
# [1] = biological target: T1, von Hippel-Lindau disease tumor suppressor/E3 ubiquitin-protein ligase Mdm2 (Homo sapiens, UniProt Q00987+P40337); experiment: Protac activity at VHL/MDM2 in human MCF7 cells assessed as reduction in MDM2 protein level at 100 uM after 48 hrs by Western blotting analysis; format: cell-based
# T1 sequence (P40337 whole entry, looked up): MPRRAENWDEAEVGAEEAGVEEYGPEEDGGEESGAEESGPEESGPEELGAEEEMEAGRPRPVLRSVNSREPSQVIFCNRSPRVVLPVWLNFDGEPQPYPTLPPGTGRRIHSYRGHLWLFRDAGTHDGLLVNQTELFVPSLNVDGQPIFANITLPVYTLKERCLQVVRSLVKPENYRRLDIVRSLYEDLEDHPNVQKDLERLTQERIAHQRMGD
# T1 sequence (Q00987 whole entry, looked up): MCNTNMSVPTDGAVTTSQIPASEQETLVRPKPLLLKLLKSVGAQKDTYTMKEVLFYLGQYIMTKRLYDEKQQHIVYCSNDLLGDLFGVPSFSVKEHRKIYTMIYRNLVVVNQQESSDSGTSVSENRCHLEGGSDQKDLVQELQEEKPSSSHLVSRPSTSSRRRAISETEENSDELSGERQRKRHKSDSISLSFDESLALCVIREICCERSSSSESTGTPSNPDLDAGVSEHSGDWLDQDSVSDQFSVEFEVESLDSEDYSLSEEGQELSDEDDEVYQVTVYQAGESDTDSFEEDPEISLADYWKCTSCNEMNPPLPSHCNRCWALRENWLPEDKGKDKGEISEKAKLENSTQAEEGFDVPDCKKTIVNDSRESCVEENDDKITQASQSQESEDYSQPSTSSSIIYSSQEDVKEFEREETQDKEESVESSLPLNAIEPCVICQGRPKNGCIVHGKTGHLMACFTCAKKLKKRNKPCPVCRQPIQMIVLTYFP
# SJSA-1 = experiment: Antiproliferative activity against human SJSA-1 cells assessed as cell viability at 100 uM incubated for 48 to 72 hrs by MTT assay; format: functional; conditions: time 48-72 hrs, read-out: Activity
# MCF7 = experiment: Antiproliferative activity against human MCF7 cells assessed as cell viability at 100 uM incubated for 48 to 72 hrs by MTT assay; format: functional; conditions: time 48-72 hrs, read-out: Activity
# MDA-MB-231 = experiment: Antiproliferative activity against human MDA-MB-231 cells assessed as cell viability at 100 uM incubated for 48 to 72 hrs by MTT assay; format: functional; conditions: time 48-72 hrs, read-out: Activity
# HepG2 = experiment: Antiproliferative activity against human HepG2 cells assessed as cell viability at 100 uM incubated for 48 to 72 hrs by MTT assay; format: functional; conditions: time 48-72 hrs, read-out: Activity
# [2] = biological target: T1, von Hippel-Lindau disease tumor suppressor/E3 ubiquitin-protein ligase Mdm2; experiment: Protac activity at VHL/MDM2 in human MDA-MB-231 cells assessed as reduction in MDM2 protein level at 80 uM after 48 hrs by Western blotting analysis; format: cell-based
# [3] = Cytotoxicity against mouse HT-22 cells assessed as cell viability at 100 uM incubated for 48 to 72 hrs by MTT assay; format: toxicity, cell-based; conditions: time 48-72 hrs, read-out: Activity
Structure (SMILES),Activity [1],viability at 100 µM (SJSA-1) [%],viability at 100 µM (MCF7) [%],viability at 100 µM (MDA-MB-231) [%],viability at 100 µM (HepG2) [%],Activity [2],viability at 100 µM [3] [%]
C[C@H](CC(=O)C[C@@H](C)[C@H]1C[C@H](O)[C@@]2(C)C3=C(C(=O)C[C@]12C)[C@@]1(C)CCC(=O)C(C)(C)[C@@H]1C[C@@H]3O)C(=O)O [GANODERIC ACID A],inactive,98.9,84.7,84.8,87.2,inactive,
C[C@H](CC(=O)C[C@@H](C)[C@H]1C[C@H](O)[C@@]2(C)C3=C(C(=O)C[C@]12C)[C@@]1(C)CCC(=O)C(C)(C)[C@@H]1C[C@@H]3O)C(=O)NCCCn1cc(CNc2cccc3c2C(=O)N(C2CCC(=O)NC2=O)C3=O)nn1 (some centres not stated),,75.7,70.5,56.2,116,,94.9
Cc1ncsc1-c1ccc([C@H](C)NC(=O)[C@@H]2C[C@@H](O)CN2C(=O)[C@@H](NC(=O)CCCCc2cn(CCOCCNC(=O)[C@H](C)CC(=O)C[C@@H](C)[C@H]3C[C@H](O)[C@@]4(C)C5=C(C(=O)C[C@]34C)[C@@]3(C)CCC(=O)C(C)(C)[C@@H]3C[C@@H]5O)nn2)C(C)(C)C)cc1,,88.2,81.9,70.8,94,,97
COc1cccc2c1C(=O)c1c(O)c3c(c(O)c1C2=O)C[C@@](O)(C(=O)CO)C[C@@H]3O[C@H]1C[C@H](N)[C@H](O)[C@H](C)O1 [DOXORUBICIN],,56.2,57.5,39.4,64.3,,
Cc1ncsc1-c1ccc([C@H](C)NC(=O)[C@@H]2C[C@@H](O)CN2C(=O)[C@@H](NC(=O)CCCCc2cn(CCOCCOCCNC(=O)[C@H](C)CC(=O)C[C@@H](C)[C@H]3C[C@H](O)[C@@]4(C)C5=C(C(=O)C[C@]34C)[C@@]3(C)CCC(=O)C(C)(C)[C@@H]3C[C@@H]5O)nn2)C(C)(C)C)cc1,,77.1,41.4,31.6,86.8,,95.9
C[C@H](CC(=O)C[C@@H](C)[C@H]1C[C@H](O)[C@@]2(C)C3=C(C(=O)C[C@]12C)[C@@]1(C)CCC(=O)C(C)(C)[C@@H]1C[C@@H]3O)C(=O)NCCOCCOCCOCCn1cc(CNc2cccc3c2C(=O)N(C2CCC(=O)NC2=O)C3=O)nn1 (some centres not stated),,83.4,65.5,69.7,81.3,,97.2
Cc1ncsc1-c1ccc([C@H](C)NC(=O)[C@@H]2C[C@@H](O)CN2C(=O)[C@@H](NC(=O)CCCc2cn(CCOCCOCCOCCOCCNC(=O)[C@H](C)CC(=O)C[C@@H](C)[C@H]3C[C@H](O)[C@@]4(C)C5=C(C(=O)C[C@]34C)[C@@]3(C)CCC(=O)C(C)(C)[C@@H]3C[C@@H]5O)nn2)C(C)(C)C)cc1,,61.7,30.1,28.7,94.8,,96.9
Cc1ncsc1-c1ccc([C@H](C)NC(=O)[C@@H]2C[C@@H](O)CN2C(=O)[C@@H](NC(=O)CCCc2cn(CCCNC(=O)[C@H](C)CC(=O)C[C@@H](C)[C@H]3C[C@H](O)[C@@]4(C)C5=C(C(=O)C[C@]34C)[C@@]3(C)CCC(=O)C(C)(C)[C@@H]3C[C@@H]5O)nn2)C(C)(C)C)cc1,,81.5,87,99.1,90.1,,89.1
C[C@H](CC(=O)C[C@@H](C)[C@H]1C[C@H](O)[C@@]2(C)C3=C(C(=O)C[C@]12C)[C@@]1(C)CCC(=O)C(C)(C)[C@@H]1C[C@@H]3O)C(=O)NCc1cn(CCOCCNc2cccc3c2C(=O)N(C2CCC(=O)NC2=O)C3=O)nn1 (some centres not stated),,88.2,60.7,48.6,85.8,,83.2
C[C@H](CC(=O)C[C@@H](C)[C@H]1C[C@H](O)[C@@]2(C)C3=C(C(=O)C[C@]12C)[C@@]1(C)CCC(=O)C(C)(C)[C@@H]1C[C@@H]3O)C(=O)NCCOCCn1cc(CNc2cccc3c2C(=O)N(C2CCC(=O)NC2=O)C3=O)nn1 (some centres not stated),,92.2,81.8,73.1,110,,99.2
C[C@H](CC(=O)C[C@@H](C)[C@H]1C[C@H](O)[C@@]2(C)C3=C(C(=O)C[C@]12C)[C@@]1(C)CCC(=O)C(C)(C)[C@@H]1C[C@@H]3O)C(=O)NCc1cn(CCCNc2cccc3c2C(=O)N(C2CCC(=O)NC2=O)C3=O)nn1 (some centres not stated),,79.6,65.9,73.8,58.4,,96.7
C[C@H](CC(=O)C[C@@H](C)[C@H]1C[C@H](O)[C@@]2(C)C3=C(C(=O)C[C@]12C)[C@@]1(C)CCC(=O)C(C)(C)[C@@H]1C[C@@H]3O)C(=O)NCc1cn(CCOCCOCCNc2cccc3c2C(=O)N(C2CCC(=O)NC2=O)C3=O)nn1 (some centres not stated),,60.6,71.2,63.1,88.8,,78.2
Cc1ncsc1-c1ccc([C@H](C)NC(=O)[C@@H]2C[C@@H](O)CN2C(=O)[C@@H](NC(=O)CCCc2cn(CCOCCNC(=O)[C@H](C)CC(=O)C[C@@H](C)[C@H]3C[C@H](O)[C@@]4(C)C5=C(C(=O)C[C@]34C)[C@@]3(C)CCC(=O)C(C)(C)[C@@H]3C[C@@H]5O)nn2)C(C)(C)C)cc1,,58.4,66.9,41.8,105,,97
CC(=O)N[C@H](C(=O)N1C[C@H](O)C[C@H]1C(=O)N[C@@H](C)c1ccc(-c2scnc2C)cc1)C(C)(C)C,inactive,,,,,inactive,
C[C@H](CC(=O)C[C@@H](C)[C@H]1C[C@H](O)[C@@]2(C)C3=C(C(=O)C[C@]12C)[C@@]1(C)CCC(=O)C(C)(C)[C@@H]1C[C@@H]3O)C(=O)NCc1cn(CCOCCOCCOCCNc2cccc3c2C(=O)N(C2CCC(=O)NC2=O)C3=O)nn1 (some centres not stated),,67,83.4,74.7,91,,78.2
Cc1ncsc1-c1ccc([C@H](C)NC(=O)[C@@H]2C[C@@H](O)CN2C(=O)[C@@H](NC(=O)CCCc2cn(CCOCCOCCOCCNC(=O)[C@H](C)CC(=O)C[C@@H](C)[C@H]3C[C@H](O)[C@@]4(C)C5=C(C(=O)C[C@]34C)[C@@]3(C)CCC(=O)C(C)(C)[C@@H]3C[C@@H]5O)nn2)C(C)(C)C)cc1,,61.8,42.7,25.5,89.2,,90.2
Cc1ncsc1-c1ccc([C@H](C)NC(=O)[C@@H]2C[C@@H](O)CN2C(=O)[C@@H](NC(=O)CCCCc2cn(CCCNC(=O)[C@H](C)CC(=O)C[C@@H](C)[C@H]3C[C@H](O)[C@@]4(C)C5=C(C(=O)C[C@]34C)[C@@]3(C)CCC(=O)C(C)(C)[C@@H]3C[C@@H]5O)nn2)C(C)(C)C)cc1,,84.6,57.9,97.5,96.5,,102
C[C@H](CC(=O)C[C@@H](C)[C@H]1C[C@H](O)[C@@]2(C)C3=C(C(=O)C[C@]12C)[C@@]1(C)CCC(=O)C(C)(C)[C@@H]1C[C@@H]3O)C(=O)NCc1cn(CCOCCOCCOCCOCCNc2cccc3c2C(=O)N(C2CCC(=O)NC2=O)C3=O)nn1 (some centres not stated),,95.9,57.2,57.9,125,,98.3
C[C@H](CC(=O)C[C@@H](C)[C@H]1C[C@H](O)[C@@]2(C)C3=C(C(=O)C[C@]12C)[C@@]1(C)CCC(=O)C(C)(C)[C@@H]1C[C@@H]3O)C(=O)NCCOCCOCCn1cc(CNc2cccc3c2C(=O)N(C2CCC(=O)NC2=O)C3=O)nn1 (some centres not stated),,85.9,76.8,71.6,105,,98.7
C[C@H](CC(=O)C[C@@H](C)[C@H]1C[C@H](O)[C@@]2(C)C3=C(C(=O)C[C@]12C)[C@@]1(C)CCC(=O)C(C)(C)[C@@H]1C[C@@H]3O)C(=O)NCCOCCOCCOCCOCCn1cc(CNc2cccc3c2C(=O)N(C2CCC(=O)NC2=O)C3=O)nn1 (some centres not stated),,83,75.9,90.2,130,,91.9
Cc1ncsc1-c1ccc([C@H](C)NC(=O)[C@@H]2C[C@@H](O)CN2C(=O)[C@@H](NC(=O)CCCc2cn(CCOCCOCCNC(=O)[C@H](C)CC(=O)C[C@@H](C)[C@H]3C[C@H](O)[C@@]4(C)C5=C(C(=O)C[C@]34C)[C@@]3(C)CCC(=O)C(C)(C)[C@@H]3C[C@@H]5O)nn2)C(C)(C)C)cc1,,74.1,40.8,37.7,84.6,,101
